Data reported in US6780633B2, “Methods for producing optically active amino acids” (Sumitomo Chemical Company, Limited, priority 1999, dated 2004).

Legend:
Assay type in all cases: cell-based
[1] = tested on: Flavimonas oryzihabitans JCM2952; experiment: effect of aminotransferase inhibitor on production of L-p-chlorophenylalanine from D-form by cells; settings: inhibitor final 1 mM; 30° C., 2 hours; absence of inhibitor = 100%
Description: (§1) A 500 mL Sakaguchi flask containing 100 ml of a sterilized medium (pH 7.0) containing 1.0% (w/v) glycerol, 0.2% (w/v) polypeptone (Nihon Pharmaceutical Co., Ltd.), 0.3% (w/v) meat extract (Kyokuto Pharmaceutical Ind., Co., Ltd.), 0.3% (w/v) yeast extract (Difco), 0.1% (w/v) dipotassium phosphate, 0.1% (w/v) potassium mono phosphate, 0.03% (w/v) magnesium sulfate heptahydrate was inoculated with 1 mL of a culture of Nocardia diaphanozonaria strain JCM3208 which had previously been cultivated in a medium of the similar composition, and incubated at 30° C. for 2 days with a reciprocal shaking. 80 ml of this culture was subjected to centrifugation (10000 g, 10 minutes) to collect wet cells. The collected wet cells were washed twice with 80 ml of 100 mM potassium phosphate buffer (pH 7.0) and the wet cells thus obtained was suspended in 4 mL of 100 mM potassium phosphate buffer (pH 7.0) to obtain a cell suspension.
(§2) 0.2 ml of the cell suspension was combined with 1.8 mL of 100 mM potassium phosphate buffer (pH7.0) containing D-p-chlorophenylalanine at 5.5 mM and an aminotransferase inhibitor shown in Table 6 at 1.1 mM, and incubated at 30° C. for 2 hours with a reciprocal shaking at 250 rpm. Each reaction mixture was analyzed at an early stage of the reaction by HPLC to quantify L-p-chlorophenylalanine produced by the reaction. The results are represented as the relative values each based on 100% production of L-p-chlorophenylalanine in the absence of the respective aminotransferase inhibitor.
(§3) The reaction was performed similarly as in Example 6 except for using each of the microorganisms shown in Table 7 instead of Nocardia diaphanozonaria strain JCM3208.

[2] = tested on: Pseudomonas taetrolens IFO3460; experiment: as above; settings: inhibitor final 1 mM; 30° C., 2 hours; absence of inhibitor = 100%
Description: as §1, §2, §3

[3] = tested on: Pseudomonas chlororaphis IFO3521; experiment: as above; settings: inhibitor final 1 mM; 30° C., 2 hours; absence of inhibitor = 100%
Description: as §1, §2, §3

[4] = tested on: Klebsiella planticola JCM7251; experiment: as above; settings: inhibitor final 1 mM; 30° C., 2 hours; absence of inhibitor = 100%
Description: as §1, §2, §3

[5] = tested on: Rhizobium meliloti IFO14782; experiment: as above; settings: inhibitor final 1 mM; 30° C., 2 hours; absence of inhibitor = 100%
Description: as §1, §2, §3

[6] = tested on: Pseudomonas oleovorans IFO13583; experiment: as above; settings: inhibitor final 1 mM; 30° C., 2 hours; absence of inhibitor = 100%
Description: as §1, §2, §3

[7] = tested on: Pseudomonas oxalaticus IFO13593; experiment: effect of aminotransferase inhibitor on production of L-p-chlorophenylalanine from D-form by cells, at equilibrium; settings: inhibitor final 1 mM; 30° C., 24 hours (reaction equilibrated); absence of inhibitor = 100%
Description: as §1, §2
(§4) The reaction was performed similarly as in Example 6 except for using each of the microorganisms shown in Table 8 instead of Nocardia diaphanozonaria strain JCM3208 and except that the reaction time was 24 hours (when the reaction was equilibrated).

[8] = tested on: Saccharopolyspora hirsuta JCM9109; experiment: as above; settings: inhibitor final 1 mM; 30° C., 24 hours (reaction equilibrated); absence of inhibitor = 100%
Description: as §1, §2, §4

[9] = tested on: Streptomyces roseus IFO12818; experiment: as above; settings: inhibitor final 1 mM; 30° C., 24 hours (reaction equilibrated); absence of inhibitor = 100%
Description: as §1, §2, §4

[10] = tested on: Arthrobacter pascens IFO12139; experiment: as above; settings: inhibitor final 1 mM; 30° C., 24 hours (reaction equilibrated); absence of inhibitor = 100%
Description: as §1, §2, §4

[11] = tested on: Nocardia diaphanozonaria strain JCM3208; experiment: effect of aminotransferase inhibitor on production of L-p-chlorophenylalanine from D-form by cells; settings: inhibitor final concentration 1 mM; D-p-chlorophenylalanine 5.5 mM; 30° C., 2 hours (early stage); absence of inhibitor = 100%
Description: as §1, §2

Compound	Relative value (%) of production of L-p-chlorophenylalanine [1] [%]	Relative value (%) of production of L-p-chlorophenylalanine [2] [%]	Relative value (%) of production of L-p-chlorophenylalanine [3] [%]	Relative value (%) of production of L-p-chlorophenylalanine [4] [%]	Relative value (%) of production of L-p-chlorophenylalanine [5] [%]	Relative value (%) of production of L-p-chlorophenylalanine [6] [%]	Relative value (%) of production of L-p-chlorophenylalanine [7] [%]	Relative value (%) of production of L-p-chlorophenylalanine [8] [%]	Relative value (%) of production of L-p-chlorophenylalanine [9] [%]	Relative value (%) of production of L-p-chlorophenylalanine [10] [%]	Relative value (%) of production of L-p-chlorophenylalanine [11] [%]
NC1C=CC=C(C(=O)O)C1 (racemic) [DL-Gabaculine]	105	75	72	102	88	87	105	97	97	96	92
N[C@H](CCl)C(=O)O [β-Chloro-D-alanine]	144	84	85	90	108	91	124	99	114	83	108
N[C@@H](CCl)C(=O)O [β-Chloro-L-alanine]	92	87	102	92	96	94	91	101	95	84	121
